For 86 compounds, melting point results are on record in a melting point compilation (Tetko et al.; mined from patent text by program, amines drawn as free bases though some values may be those of a salt).

What is called melting point is the temperature of the solid-liquid transition. Consider `CS(=O)(=O)CCNC(=O)c1ccc(-c2ccc3cnc(Nc4ccc(N5CCOCC5)cc4)nn23)cc1`, for which the melting point lay in the range of 241 to 242 °C.

Compound `CON1CCC2(CC1)NC(=O)C(c1cc(-c3ccc(Cl)cc3)c(F)cc1C)=C2OC(=O)C(C)(C)C` gave a melting point of 150 to 151 °C.

In turn, `CCOC1CC2(C)C(CCC3C4CCCC4(C)CC(N(C)C)C32)CC1O` (stereo unspecified) had a melting point of 54 to 59 °C.

Consider `OCc1ccc(Cc2ccc3c(c2)OCO3)o1`, for which the melting point fell in the range of 68 to 69 °C.

Compound `O=C(c1c(-c2cc(Cl)cc(Cl)c2)[nH]c2c(Cl)cc(Cl)cc12)C(F)(F)F` returned a melting point of 214 to 216 °C.

`CCOC(=O)c1c(CN(CC)CC)nc2sc3ncccc3c2c1-c1ccc(OC)c(OC)c1` registered a melting point of 156 to 157 °C.

`COCCOc1cc(OC)c2c(=O)[nH]c(-c3cc(C)nc(C)c3)nc2c1` gave a melting point of 229 to 230 °C.

As to `COc1ccc(COc2nn(Cc3ccccc3)cc2C=O)cc1OCc1nc(-c2ccco2)oc1C`, the melting point was 142 to 143 °C.

`CS(=O)(=O)c1ccc(-n2nc(C(F)(F)F)cc2-c2ccc(-c3ncco3)cc2)cc1F` showed a melting point of 140 to 142 °C.

Compound `CCCNc1cn(-c2cccnc2)nc1C` came in with a melting point of 65 to 67 °C.

Compound `Cc1c(-c2ccncc2)[nH]c(-c2ccncc2)c1S(C)(=O)=O` yielded a melting point of 232 to 234 °C.

Compound `CC(=O)c1cccc(SCCCc2cn(S(=O)(=O)N(C)C)cn2)c1` yielded a melting point of 122 to 124 °C.

`Cc1nc(N2CCN(CC3CC3)C2=O)sc1C(=O)NCc1ncccn1` registered a melting point of 218 to 220 °C.

`CC(=O)CCCCc1ccc(-c2ccccc2F)cc1` showed a melting point of 37 to 38 °C.

For `Cc1cc(C#N)ccc1C1(CC2c3ccccc3Oc3ccccc32)NC(=O)NC1=O` (stereo unspecified), the melting point lay in the range of 148 to 152 °C.

The compound `O=C(NCCN1CCCCC1)Nc1ccc(-c2nnc(CSCCOc3ccccc3)o2)cc1` had a melting point of 126 to 128 °C.

In turn, `CCOC(=O)/C=C/c1cc(OC)cc(OC)c1C#N` came in with a melting point of 119 to 122 °C.

`COc1ccc2c(c1)CC(COS(=O)(=O)c1ccc(C)cc1)CC2` (stereo unspecified) registered a melting point of 64 to 66 °C.

Turning to `O=C1NCc2cc(C(O)c3cccnc3)ccc2N1` (stereo unspecified), the melting point stood at 272 °C.

Turning to `CCN(CC)C(=O)N[C@H]1CC[C@H](CCN2CCN(c3cccc4c3CCC4)CC2)CC1`, the melting point was 157 to 159 °C.

Consider `COc1ccc2c(Cl)noc2c1Br`, for which the melting point was in the range of 134 to 135 °C.

For the compound `CN1CCN2c3ccccc3Cn3cccc3C2C1` (stereo unspecified), the melting point lay in the range of 98 to 100 °C.

Take `Cc1nc2cnccc2n1-c1ccc(C2=Nc3cc(Cl)c(Cl)cc3N3CCN=C3C2)cc1`: the melting point lay in the range of 159 to 162 °C.

`COCCSc1ccccc1S(=O)(=O)NC(=O)Nc1nc(C)nc(OC)n1` gave a melting point of 127 to 128 °C.

`Cn1cncc1CCNC(=O)c1[nH]c2ccc(Cl)cc2c1S(=O)(=O)c1ccccc1` registered a melting point of 257 to 258 °C.

`CC(=O)n1c2ccccc2c2[nH]c(=O)c3nccn3c21` showed a melting point of 340 °C.

For the compound `O=C1C=CC(Cl)(C(=O)OC(c2ccccc2)c2ccccc2)O1` (stereo unspecified), the melting point fell in the range of 99 to 101 °C.

`COc1cc(NC(=O)c2ccco2)ccc1S(=O)(=O)N1C(=O)C(c2ccccc2Cl)(N(C)C)c2cc(Cl)ccc21` (stereo unspecified) showed a melting point of 255 °C.

Compound `COc1cccc(Sc2cccc(F)c2C#N)c1` returned a melting point of 99 to 100 °C.

In the case of `COC(=O)c1nc(-c2ccc(Cl)c(F)c2F)nc(N)c1Br`, the melting point fell in the range of 175 to 178 °C.

In turn, `CCC(CC)Nc1c([N+](=O)[O-])cc(C)c(N)c1[N+](=O)[O-]` returned a melting point of 157 to 160 °C.

For the compound `Cc1ccc(F)c(OCCCC(=O)O)c1`, the melting point was in the range of 62 to 64 °C.

Compound `CCN1CCN(CC/C=C/c2cc3ncc(C#N)c(Nc4cc(OC)c(Cl)cc4Cl)c3cc2OC)CC1` displayed a melting point of 129 to 131 °C.

Consider `COC(=O)c1ccc(C(F)(F)F)[nH]c1=O`, for which the melting point is 63 to 64 °C.

Compound `O=C(Nc1ccc(N2CCNCC2)c(C(F)(F)F)c1)c1ccc(F)c(OCc2cccnc2)c1` displayed a melting point of 61 to 66 °C.

Consider `COc1ccc(-c2nnc3c4ccccc4c(Nc4ccc(-c5nnn(C)n5)cc4)nn23)cc1`, for which the melting point lay within 289 to 293 °C.

Compound `CCOC(=O)c1cc([N+](=O)[O-])c(Nc2cccc(C)n2)c(S(N)(=O)=O)c1` registered a melting point of 203 to 204 °C.

The compound `O=C(Nc1cccc(C(F)(F)F)c1)Nc1c(C(=O)O)[nH]c(=O)[nH]c1=O` had a melting point greater than 300 °C.

Compound `Cn1cc(C(=O)O)c(=O)c2oc3ccccc3c(=O)c21` gave a melting point of 308 to 312 °C.

`CC(=O)Nc1ccc(-c2ccc3nnn(Cc4ccc5ncccc5c4)c3n2)cc1` registered a melting point of 220 to 223 °C.

Take `CCOCc1nc2c(N)nc3cccnc3c2n1CCCON=C1CCN(C(C)=O)CC1`: the melting point was 162 to 163 °C.

On to `CCN1C(=O)CCc2cc(Sc3cccc([C@@]4(O)CCO[C@@H](C)C4)c3)ccc21`, for which the melting point lay in the range of 148 to 149 °C.

As to `CN1C2=C(CSC2)C(=O)Nc2cc(Cl)c(Cl)cc21`, the melting point fell in the range of 281 to 283 °C.

Regarding `N#Cc1ccc2c(c1)CCC(c1ccccc1F)=C2CCO`, the melting point came to 119 °C.

Consider `CC(C)C[C@H](NC(=O)OCc1ccccc1)C(=O)N[C@@H](CC(N)=O)C(=O)NC(Cc1ccccc1)C(O)C(Cc1ccccc1)NC(=O)OC(C)(C)C` (stereo partly specified), for which the melting point lay in the range of 192 to 194 °C.

In the case of `COc1ccc(C2(O)CCCN(Cc3ccccc3)C2)cc1` (stereo unspecified), the melting point is 58 °C.

In the case of `Cc1cccc(C)c1CO`, the melting point came to 84 °C.

`CC(C)=CCc1cc(C2Oc3c(CC=C(C)C)c(O)cc(O)c3C(=O)C2O)ccc1O` (stereo unspecified) yielded a melting point of 95 to 96 °C.

In turn, `CCCCn1c(C(=O)c2cc(C)cc(CCC#N)c2)c(C(C)C)c(=O)[nH]c1=O` came in with a melting point of 172 to 173 °C.

Turning to `C=C1N(c2cccc3ccccc23)C(=O)OC12CCN(Cc1ccccc1)CC2`, the melting point lay in the range of 130 to 131 °C.

`Cc1ccc2ccccc2c1N(C(=O)CCl)C1COC(=O)C1` (stereo unspecified) gave a melting point of 121 to 122 °C.

Consider `Oc1ccc(Br)cc1CNc1cc(Cl)cc(Cl)c1`, for which the melting point fell in the range of 125 to 126 °C.

The compound `NC(=O)c1cccc2c1OC(F)(F)O2` had a melting point of 130 to 131 °C.

Consider `CN(CC(F)(F)F)C(=O)COc1nnc(-c2ccccc2)s1`, for which the melting point stood at 123 °C.

Compound `Cc1c(CC(=O)O)c2cc(OCc3csc(-c4ccc(C(F)(F)F)cc4)n3)ccc2n1Cc1ccc(Cl)cc1` had a melting point of 196 to 197 °C.

In the case of `O=S(=O)(c1ccc(C(CC2CCOCC2)c2ccc(-c3ccc(Cn4cncn4)cn3)[nH]2)cc1)C1CC1` (stereo unspecified), the melting point was 152 to 153 °C.

Consider `O=C(O)C1=Cc2cc(S(=O)(=O)NCc3ccccc3)cc(Cl)c2OC1C(F)(F)F` (stereo unspecified), for which the melting point was 167 to 174 °C.

For the compound `CCCCCCCCCCCCc1nnn(C(C(N)=O)c2c(C(C)C)cccc2C(C)C)n1` (stereo unspecified), the melting point was in the range of 91 to 93 °C.

For the compound `Cc1ccc2c(c1)S(=O)(=O)c1cc(C)ccc1O2`, the melting point was 175 to 176 °C.

`CCCCCCOc1ccc2[nH]c(SC(C)(CO)c3ccccc3)cc2c1` (stereo unspecified) had a melting point of 93.5 to 95.5 °C.

Compound `CC(C)c1cccc(C(C)C)c1NC(=O)CCN1CCN(CCCSc2nc3ccccc3o2)CC1` showed a melting point of 93 to 95 °C.

With `CC(C(=O)O)c1cccc2c(-c3ccc(Cl)cc3)nccc12` (stereo unspecified), the melting point is 200 to 202 °C.

`COc1ccc2c(c1[N+](=O)[O-])CN(S(C)(=O)=O)CC(=O)N2` yielded a melting point of 222 to 226 °C.

In turn, `CCCCCCCCCCCCc1ccccc1C(Sc1nc(C)c(C(=O)O)s1)C(=O)O` (stereo unspecified) displayed a melting point of 88 to 91 °C.

With `[N-]=[N+]=Nc1nc2c(N)ncnc2n1C1CC(O)C(CO)O1` (stereo unspecified), the melting point was 177 to 179 °C.

The compound `CS(=O)(=O)c1cccc(NC(=O)c2cnn3ccc(-c4ccc(Cl)cc4)nc23)c1` came in with a melting point of 258 to 260 °C.

The compound `O=C(Nc1ccc2cc(CN3CCC(CCO)CC3)cnc2c1)c1ccc(-c2ccc(Cl)cc2)cc1` showed a melting point of 204 °C.

In the case of `Nc1sc2c(c1C(=O)c1ccc(Cl)cc1)CCS2`, the melting point lay in the range of 146 to 150 °C.

Compound `CC(C)n1nc(-c2sc(N(C)C)nc2-c2ccccc2)ccc1=O` gave a melting point of 158 to 160 °C.

Turning to `CCOc1nc(-c2cccc(Cl)c2)c2cc(C(O)(c3ccc(C(=O)OC(C)C)cc3)c3cncn3C)ccc2n1` (stereo unspecified), the melting point was 145 °C.

With `CCOC(=O)c1c(C(F)(F)F)nn(-c2c(Cl)cc(Cl)cc2Cl)c1N`, the melting point fell in the range of 114 to 116 °C.

Turning to `O=C(O)C=Cc1cn(CC(C(=O)c2ccc(Cl)cc2Cl)c2ccccc2)cn1` (stereo unspecified), the melting point was in the range of 229 to 231 °C.

For the compound `CC(=O)Oc1c(C(C)(C)C)cc2occc2c1C(C)(C)C`, the melting point was determined as 87.7 °C.

Compound `CCOc1c(NCc2c(C)cccc2C)c(=O)c1=O` showed a melting point of 281 to 283 °C.

Regarding `CS(=O)(=O)c1ccc(Oc2cc(OCc3ccccc3)c3[nH]c(C4=NCC(CC(N)=O)S4)cc3c2)cc1` (stereo unspecified), the melting point is 134 to 135 °C.

With `COC(=O)Nc1ccc(N)c(NCCO)c1`, the melting point lay within 240 to 242 °C.

In turn, `CCC(=Cc1ccc(OCCCC(=O)O)c(Cl)c1Cl)[N+](=O)[O-]` displayed a melting point of 155 to 156 °C.

For the compound `Cc1c(C(=O)c2ccc(Cl)c(S(N)(=O)=O)c2)[nH]c2ccccc12`, the melting point is 205 °C.

On to `OCCc1nccn1CCCc1cccc(O)c1`, for which the melting point was in the range of 111 to 113 °C.

In turn, `O=C1CCC(N2Cc3c(OCc4ccccn4)cccc3C2=O)C(=O)N1` (stereo unspecified) showed a melting point of 235 to 237 °C.

For the compound `CC(C)(C)OC(=O)NCCOc1noc2ccccc12`, the melting point lay within 106 to 107 °C.

The compound `O=C(NC(=O)c1c(F)cccc1F)Nc1ccc(Oc2ccc(Cl)cc2)c(Cl)c1` came in with a melting point of 194 to 196 °C.

The compound `CCCOc1ccc(OCC(O)CNCCNc2c(C)cccc2C)cc1` (stereo unspecified) came in with a melting point of 51 to 54 °C.

In turn, `Cc1ccc2oc(=O)c(NC(=O)Nc3ccc(F)cc3F)c(-c3ccccc3Cl)c2c1` showed a melting point of 214 to 215 °C.

In the case of `CC(C)(C)OC(=O)c1ncn2c1c(C(=O)N1CCCC1)cc1ccccc12`, the melting point fell in the range of 216 to 218 °C.

Turning to `O=C(NCc1ccccn1)c1ccc(C(F)(F)F)cc1C(F)(F)F`, the melting point was 112 to 113 °C.
